From publication PMC12346769, “Activity Analysis and Inhibition Mechanism of Four Novel Angiotensin I-Converting Enzyme Inhibitory Peptides Prepared from Flammulina velutipes by Enzymatic Hydrolysis” (Foods, 2025)
Marks after values point to notes of the source that are not given here. Where a SMILES comes first, the peptide text is derived from it. Where no end group is shown, it is not given here.

Biological target: T1, ACE (Homo sapiens, UniProt P12821)
T1 construct: purchased Shanghai Yuanye Biotechnology Co., Ltd
Assay: ACE inhibition rate / IC50 determination with FAPGG substrate (absorbance 340 nm)
Type: biochemical
Conditions: for Inhibitory effect as % of the positive control: ACE inhibition rate relative to captopril; for IC50 / Inhibition Rate of ACE: synthesized peptides, captopril as positive control; for Inhibition Rate of ACE: test concentration not given
Experimental: The ACE inhibition rate was determined according to the method developed by Wang. In brief, 1 mmol/L FAPGG solution, 0.1 U/mL ACE solution, and F. velutipes protein solution were mixed in 80 mmol/L HEPES buffer (pH 8.2), and the mixture was added to 96-well plates according to Table 1. The absorbance value at the wavelength of 340 nm at 37 °C and the absorbance value after 30 min of reaction were measured. The calculation formula is as follows: (2) Inhibition Rate of ACE%=(1−ΔA/ΔB)×100
In the formula, ΔA = A1 − A2; ΔB = B1 − B2. ΔA was the absorbance value of the sample pore solution; ΔB was the absorbance value of the control pore solution. A1 and B1 were the absorbance values measured at the wavelength of 340 nm. A2 and B2 were the absorbance values measured at the wavelength of 340 nm after reacting for 30 min at 37 °C.
Wuhan Dangang Biotechnology Co., Ltd. (Wuhan, China) was commissioned to synthesize the peptides. […] With captopril as the positive control, the ACE inhibition rate and IC50 of the above synthetic peptides were determined according to the method of Section 2.5.

T1 sequence (P12821 30-1306, species assumed): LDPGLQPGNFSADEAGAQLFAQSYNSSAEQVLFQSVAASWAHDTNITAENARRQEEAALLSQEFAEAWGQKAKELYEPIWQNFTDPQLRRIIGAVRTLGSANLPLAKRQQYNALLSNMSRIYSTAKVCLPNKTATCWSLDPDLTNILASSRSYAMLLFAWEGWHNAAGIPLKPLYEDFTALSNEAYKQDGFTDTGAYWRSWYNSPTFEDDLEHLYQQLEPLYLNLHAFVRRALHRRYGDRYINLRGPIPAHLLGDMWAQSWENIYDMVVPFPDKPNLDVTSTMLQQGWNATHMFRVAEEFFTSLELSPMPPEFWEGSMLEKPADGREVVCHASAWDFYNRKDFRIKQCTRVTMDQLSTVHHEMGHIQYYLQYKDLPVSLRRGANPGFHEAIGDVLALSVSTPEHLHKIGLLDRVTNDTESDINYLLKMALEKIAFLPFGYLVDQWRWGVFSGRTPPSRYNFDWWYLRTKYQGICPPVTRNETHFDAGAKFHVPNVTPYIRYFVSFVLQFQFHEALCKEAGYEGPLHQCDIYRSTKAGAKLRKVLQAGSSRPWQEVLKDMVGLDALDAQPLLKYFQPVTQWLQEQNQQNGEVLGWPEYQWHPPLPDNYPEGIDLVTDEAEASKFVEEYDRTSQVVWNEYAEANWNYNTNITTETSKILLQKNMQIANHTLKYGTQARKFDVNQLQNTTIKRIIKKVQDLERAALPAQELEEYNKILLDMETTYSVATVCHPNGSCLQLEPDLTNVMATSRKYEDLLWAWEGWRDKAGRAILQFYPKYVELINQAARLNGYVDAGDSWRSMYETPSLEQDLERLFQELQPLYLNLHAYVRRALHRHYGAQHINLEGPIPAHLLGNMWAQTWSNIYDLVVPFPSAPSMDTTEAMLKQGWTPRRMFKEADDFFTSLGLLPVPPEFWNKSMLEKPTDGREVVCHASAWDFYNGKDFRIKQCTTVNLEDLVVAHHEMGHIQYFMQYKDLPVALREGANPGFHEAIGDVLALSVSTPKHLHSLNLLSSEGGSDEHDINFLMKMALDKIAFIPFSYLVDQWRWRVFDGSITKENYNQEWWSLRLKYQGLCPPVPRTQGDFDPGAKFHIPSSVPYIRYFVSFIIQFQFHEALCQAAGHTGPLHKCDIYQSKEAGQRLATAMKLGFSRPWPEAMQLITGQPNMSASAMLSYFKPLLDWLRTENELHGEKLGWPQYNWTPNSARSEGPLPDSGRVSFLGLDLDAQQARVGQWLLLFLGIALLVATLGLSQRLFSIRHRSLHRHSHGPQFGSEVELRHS

Compound | Inhibitory effect as % of the positive control [%] | IC50 [µM] | Inhibition Rate of ACE
N[C@@H](Cc1ccccc1)C(=O)N[C@@H](CC(=O)O)C(=O)NCC(=O)N[C@@H](Cc1ccc(O)cc1)C(=O)O [FDGY] (H-FDGY-OH; N-terminus and C-terminus assumed) | 81.53 | 91.5 ± 1.09 | 80.48 ± 0.84 ^e %
C[C@H](NC(=O)[C@@H](N)Cc1c[nH]c2ccccc12)C(=O)N[C@@H](CC(=O)O)C(=O)N1CCC[C@H]1C(=O)O [WADP] (H-WADP-OH; N-terminus and C-terminus assumed) | 84.13 | 41.3 ± 0.7 | 83.04 ± 0.68 ^d %
FAGGP [FAGGP] | 87.04 | 29.2 ± 1.37 | 85.92 ± 1.81 ^c %
FHPGY [FHPGY] | 92.60 | 14.8 ± 0.34 | 91.41 ± 1.01 ^b %
